Results taken from patent publication US20230095836A1, “SUBSTITUTED 5,6-DIPHENYL-3(2H)-PYRIDAZINONES FOR USE AS FUNGICIDES” (FMC Corporation, priority 2020, published 2023).

Assays:
Format in all cases: in vivo
Zymoseptoria tritici = test: Test A: test solution sprayed on wheat seedlings, inoculated next day with Zymoseptoria tritici (wheat leaf blotch); disease rating (100 = 100% disease control, 0 = no control; dash = not tested)
Experimental: The resulting test suspensions were then used in Tests A-F. The test solution was sprayed to the point of run-off on wheat seedlings. The following day the seedlings were inoculated with a spore suspension of Zymoseptoria tritici (the causal agent of wheat leaf blotch) and incubated in a saturated atmosphere at 24° C. for 48 h, and then moved to a growth chamber at 20° C. for 17 days, after which time disease ratings were made. A rating of 100 indicates 100% disease control and a rating of 0 indicates no disease control (relative to the controls). A dash (—) indicates the compound was not tested.

[1] = test system: Puccinia recondita f. sp. tritici; test: Test B: test solution sprayed on wheat seedlings, inoculated next day with Puccinia recondita f. sp. tritici (wheat leaf rust); disease rating (100 = 100% disease control, 0 = no control; dash = not tested)
From the text: The resulting test suspensions were then used in Tests A-F. The test solution was sprayed to the point of run-off on wheat seedlings. […] A rating of 100 indicates 100% disease control and a rating of 0 indicates no disease control (relative to the controls). A dash (—) indicates the compound was not tested.

[2] = test system: Blumeria graminis f. sp. tritici; test: Test C: test suspension sprayed on wheat seedlings, inoculated next day with Blumeria graminis f. sp. tritici (wheat powdery mildew); visual disease rating (100 = 100% disease control, 0 = no control; dash = not tested)
Experimental: The resulting test suspensions were then used in Tests A-F. The test suspension was sprayed to the point of run-off on wheat seedlings. The following day the seedlings were inoculated with a spore dust of Blumeria graminis f. sp. tritici, (also known as Erysiphe graminis f. sp. tritici, the causal agent of wheat powdery mildew) and incubated in a growth chamber at 20° C. for 8 days, after which time visual disease ratings were made. A rating of 100 indicates 100% disease control and a rating of 0 indicates no disease control (relative to the controls). A dash (—) indicates the compound was not tested.

Phakopsora pachyrhizi = test: Test D: test solution sprayed on soybean seedlings, inoculated next day with Phakopsora pachyrhizi (Asian soybean rust); visual disease rating (100 = 100% disease control, 0 = no control; dash = not tested)
From the text: General protocol for preparing test suspensions for Tests A-F: the test compounds were first dissolved in acetone in an amount equal to 3% of the final volume and then suspended at the desired concentration (in ppm) in acetone and purified water (50/50 mix by volume) containing 250 ppm of the surfactant PEG400 (polyhydric alcohol esters). The resulting test suspensions were then used in Tests A-F.
The test solution was sprayed to the point of run-off on soybean seedlings. The following day the seedlings were inoculated with a spore suspension of Phakopsora pachyrhizi (the causal agent of Asian soybean rust) and incubated in a saturated atmosphere at 22° C. for 24 h and then moved to a growth chamber at 22° C. for 8 days, after which time visual disease ratings were made.
A rating of 100 indicates 100% disease control and a rating of 0 indicates no disease control (relative to the controls). A dash (—) indicates the compound was not tested.

Botrytis cinerea = test: Test E: test suspension sprayed on tomato seedlings, inoculated next day with Botrytis cinerea (tomato Botrytis); visual disease rating (100 = 100% disease control, 0 = no control; dash = not tested)
Experimental: (§1) The resulting test suspensions were then used in Tests A-F. The test suspension was sprayed to the point of run-off on tomato seedlings. The following day the seedlings were inoculated with a spore suspension of Botrytis cinerea (the causal agent of tomato Botrytis) and incubated in a saturated atmosphere at 20° C. for 48 h, and then moved to a growth chamber at 24° C. for 3 days, after which time visual disease ratings were made. A rating of 100 indicates 100% disease control and a rating of 0 indicates no disease control (relative to the controls). A dash (—) indicates the compound was not tested.

Alternaria solani = test: Test F: test suspension sprayed on tomato seedlings, inoculated next day with Alternaria solani (tomato early blight); visual disease rating (100 = 100% disease control, 0 = no control; dash = not tested)
Experimental: as §1, with “Alternaria solani” for “Botrytis cinerea”, “early blight)” for “Botrytis)”, “27°” for “20°”, “20°” for “24°”

CCN1N=C(c2cc(OC)cc(OC)c2)C(c2ccc(F)cc2Cl)CC1=O (stereo not drawn) [Compound 19]
Test A disease control rating (Zymoseptoria tritici; 250 ppm): 0%
Test B disease control rating ([1]; 250 ppm): 0%
Test C disease control rating ([2]; 250 ppm): 0%
Test D disease control rating (Phakopsora pachyrhizi; 250 ppm): 0%
Test E disease control rating (Botrytis cinerea; 250 ppm): 0%
Test F disease control rating (Alternaria solani; 250 ppm): 0%

CCc1c(-c2c(F)cccc2F)c(-c2c(F)cccc2F)nn(C)c1=O [Compound 46]
Test A disease control rating (Zymoseptoria tritici; 50 ppm): 99%
Test B disease control rating ([1]; 50 ppm): 98%
Test C disease control rating ([2]; 50 ppm): 95%
Test D disease control rating (Phakopsora pachyrhizi; 50 ppm): 0%
Test E disease control rating (Botrytis cinerea; 50 ppm): 88%
Test F disease control rating (Alternaria solani; 50 ppm): 99%

Cn1nc(-c2ccccc2)c(-c2c(F)cccc2F)cc1=O [Compound 191]
Test A disease control rating (Zymoseptoria tritici; 250 ppm): 72%
Test B disease control rating ([1]; 250 ppm): 9%
Test C disease control rating ([2]; 250 ppm): 99%
Test D disease control rating (Phakopsora pachyrhizi; 250 ppm): 0%
Test E disease control rating (Botrytis cinerea; 250 ppm): 99%
Test F disease control rating (Alternaria solani; 250 ppm): 0%

COc1ccc(Cl)c(-c2nn(C)c(=O)c(Cl)c2-c2ccccc2Cl)c1 [Compound 184]
Test A disease control rating (Zymoseptoria tritici; 50 ppm): 100%
Test B disease control rating ([1]; 50 ppm): 100%
Test C disease control rating ([2]; 50 ppm): 96%
Test D disease control rating (Phakopsora pachyrhizi; 50 ppm): 99%
Test E disease control rating (Botrytis cinerea; 50 ppm): 96%
Test F disease control rating (Alternaria solani; 50 ppm): 99%

Cn1nc(-c2ccc(F)cc2Cl)c(-c2ccc(F)cc2Cl)c(Cl)c1=O [Compound 60]
Test A disease control rating (Zymoseptoria tritici; 50 ppm): 100%
Test B disease control rating ([1]; 50 ppm): 100%
Test C disease control rating ([2]; 50 ppm): 99%
Test D disease control rating (Phakopsora pachyrhizi; 50 ppm): 93%
Test E disease control rating (Botrytis cinerea; 50 ppm): 98%
Test F disease control rating (Alternaria solani; 50 ppm): 99%

CCc1c(-c2c(F)cccc2F)c(-c2cc(OC)cc(F)c2Cl)nn(C)c1=O [Compound 180]
Test A disease control rating (Zymoseptoria tritici; 50 ppm): 100%
Test B disease control rating ([1]; 50 ppm): 100%
Test C disease control rating ([2]; 50 ppm): 100%
Test D disease control rating (Phakopsora pachyrhizi; 50 ppm): 100%
Test E disease control rating (Botrytis cinerea; 50 ppm): 99%
Test F disease control rating (Alternaria solani; 50 ppm): 100%

CCc1c(-c2c(F)cccc2F)c(-c2cc(OC)cc(F)c2Br)nn(C)c1=O [Compound 181]
Test A disease control rating (Zymoseptoria tritici; 50 ppm): 98%
Test B disease control rating ([1]; 50 ppm): 100%
Test C disease control rating ([2]; 50 ppm): 100%
Test D disease control rating (Phakopsora pachyrhizi; 50 ppm): 100%
Test E disease control rating (Botrytis cinerea; 50 ppm): 94%
Test F disease control rating (Alternaria solani; 50 ppm): 100%

COc1ccc(Cl)c(-c2nn(C)c(=O)c(Cl)c2-c2ccccc2F)c1 [Compound 183]
Test A disease control rating (Zymoseptoria tritici; 50 ppm): 100%
Test B disease control rating ([1]; 50 ppm): 100%
Test C disease control rating ([2]; 50 ppm): 96%
Test D disease control rating (Phakopsora pachyrhizi; 50 ppm): 94%
Test E disease control rating (Botrytis cinerea; 50 ppm): 98%
Test F disease control rating (Alternaria solani; 50 ppm): 100%

CCn1nc(-c2ccc(F)cc2Cl)c(-c2ccc(F)cc2Cl)c(Cl)c1=O [Compound 24]
Test A disease control rating (Zymoseptoria tritici; 250 ppm): 100%
Test B disease control rating ([1]; 250 ppm): 80%
Test C disease control rating ([2]; 250 ppm): 93%
Test D disease control rating (Phakopsora pachyrhizi; 250 ppm): 0%
Test E disease control rating (Botrytis cinerea; 250 ppm): 100%
Test F disease control rating (Alternaria solani; 250 ppm): 0%

COc1cc(OC)c(Br)c(-c2nn(C)c(=O)c(C)c2-c2ccc(F)cc2Cl)c1 [Compound 64, 6-(2-bromo-3,5-dimethoxyphenyl)-5-(2-chloro-4-fluorophenyl)-2,4-dimethyl-3(2H)-pyridazinone]
pest or weed control at 50 ppm (Zymoseptoria tritici; 50 ppm): 100%
pest or weed control at 50 ppm ([1]; 50 ppm): 100%
pest or weed control at 50 ppm ([2]; 50 ppm): 100%
pest or weed control at 50 ppm (Phakopsora pachyrhizi; 50 ppm): 100%
pest or weed control at 50 ppm (Botrytis cinerea; 50 ppm): 100%
pest or weed control at 50 ppm (Alternaria solani; 50 ppm): 100%

COc1c(-c2ccc(F)cc2Cl)c(-c2cccc(Cl)c2F)nn(C)c1=O [Compound 109]
Test A disease control rating (Zymoseptoria tritici; 50 ppm): 100%
Test B disease control rating ([1]; 50 ppm): 74%
Test C disease control rating ([2]; 50 ppm): 99%
Test D disease control rating (Phakopsora pachyrhizi; 50 ppm): 0%
Test E disease control rating (Botrytis cinerea; 50 ppm): 96%
Test F disease control rating (Alternaria solani; 50 ppm): 85%

COc1c(-c2ccc(F)cc2Cl)c(-c2cccc(F)c2F)nn(C)c1=O [Compound 116]
Test A disease control rating (Zymoseptoria tritici; 50 ppm): 100%
Test B disease control rating ([1]; 50 ppm): 100%
Test C disease control rating ([2]; 50 ppm): 99%
Test D disease control rating (Phakopsora pachyrhizi; 50 ppm): 52%
Test E disease control rating (Botrytis cinerea; 50 ppm): 98%
Test F disease control rating (Alternaria solani; 50 ppm): 100%
